Laboratory results as given in patent US10105351B2, “Neurofibromatoses therapeutic agents and screening for same” (University of Central Florida Research Foundation, Inc., priority 2012, dated 2018).
Counter-ions that a name gives are not always drawn.

Columns and labels:
[1] = tested on: normal nf2^flox2/flox2 Schwann cells; assay: Selectivity assay: cell viability of normal Schwann cells; conditions: 10 uM; one assay with mouse nf2^flox2/flox2 Schwann cells at P2
Procedure: (§1) The compounds were tested at 10 uM in 8 replicates in a 384-well format using the live cell protease assay (CellTiter-Fluor) and the orthogonal ATP-based assay (CellTiter-GLO) (both from Promega). We tested the compounds on two Merlin-null Schwann cell lines, L1, (used in the LOPAC screen) at passages ranging from 13-23 and an independently-derived line, L2, tested at passage 20 and 21.

[2] = tested on: merlin-null Schwann cells; assay: Primary assay: live cell protease assay (CellTiter-Fluor), cell viability; conditions: 10 uM; 8 replicates, 384 well plate; mean and SD of four assays, two independently derived merlin-null Schwann cell lines at P13-23
Procedure: Cell viability was measured with the CellTiter-Fluor Live Protease Assay (Promega). […] One way ANOVA Kurskal-Wallis test was used with a Dunn's Multiple Comparison post-test.
as §1

[3] = tested on: merlin-null Schwann cells; assay: Orthogonal ATP-based luminescence cell viability assay (CellTiter-GLO); conditions: 10 uM; average of two assays with one cell line at P18-23

Compound	Selectivity Assay, cell viability [1]	Primary Assay (m +/− sd), cell viability [2]	Orthogonal Assay Average of two, cell viability [3]
CCn1cnc2c(Nc3cccc(Cl)c3)nc(N[C@@H]3CCCC[C@@H]3N)nc21 (relative stereo) [CGP-74514A hydrochloride, N2-(cis-2-Aminocyclohexyl)-N6-(3-chlorophenyl)-9-ethyl-9H-purine-2,6-diamine hydrochloride]	33 % of DMSO Control	35 +/− 7 % of DMSO Control	16.1 % of DMSO Control
CC[n+]1c(C=CC=C2N(C)c3ccccc3C2(C)C)sc2ccccc21.[I-] [AC-93253 iodide, 2-[3-(1,3-Dihydro-1,3,3-trimethyl-2H-indol-2-ylidene)-1-propenyl]-3-ethyl-benzothiazolium iodide]	28 % of DMSO Control	41 +/− 6 % of DMSO Control	24.3 % of DMSO Control
O=C1NC(=O)/C(=C/c2ccc3nccnc3c2)S1 [AS605240, 5-(6-Quinoxalinylmethylene)-2,4-thiazolidinedione]	78 % of DMSO Control	35 +/− 2 % of DMSO Control	40.1 % of DMSO Control
O=C1Nc2cc(Br)ccc2C1C1Nc2ccccc2C1NO (centres unmarked) [BIO, (2′Z,3′E)-6-Bromoindirubin-3′-oxime]	31 % of DMSO Control	20 +/− 8 % of DMSO Control	0.8 % of DMSO Control
C[C@@]12C(=O)OC(=O)[C@]1(C)[C@H]1CC[C@@H]2O1 [Cantharidin, cantharidin]	78 % of DMSO Control	34 +/− 14 % of DMSO Control	35.2 % of DMSO Control
CC(C)(C)c1ccc(C(=O)CCCN2CCC(OC(c3ccccc3)c3ccccc3)CC2)cc1 [Ebastine, ebastine]	–	17 +/− 3 % of DMSO Control	0.1 % of DMSO Control
OCCN1CCN(CCCN2c3ccccc3Sc3ccc(C(F)(F)F)cc32)CC1 [Fluphenazine dihydrochloride]	43 % of DMSO Control	71 +/− 6 % of DMSO Control	45.6 % of DMSO Control
O=C1Nc2ccc(I)cc2C1=Cc1cc(Br)c(O)c(Br)c1 [GW5074, 3-(3,5-Dibromo-4-hydroxybenzyliden)-5-iodo-1,3-dihydroindol-2-one]	31 % of DMSO Control	24 +/− 7 % of DMSO Control	36.4 % of DMSO Control
CC(C)(Sc1ccc(CCN(CCCCC2CCCCC2)C(=O)NC2CCCCC2)cc1)C(=O)O [GW7647, (2-(4-(2-(1-Cyclohexanebutyl)-3-cyclohexylureido)ethyl)-phenyl-thio)-2-methyl-propionic acid]	32 % of DMSO Control	20 +/− 5 % of DMSO Control	6.3 % of DMSO Control
O=C(CCCN1CCC(O)(c2ccc(Cl)cc2)CC1)c1ccc(F)cc1 [Haloperidol]	78 % of DMSO Control	96 +/− 4 % of DMSO Control	88.8 % of DMSO Control
CC(C)c1ccc2c(c1)c(SC(C)(C)C)c(CC(C)(C)C(=O)O)n2Cc1ccc(Cl)cc1 [L663,536, 3-[3-tert-Butylthio-1-(4-chlorobenzyl)-5-isopropyl-1H-indol-2-yl]-2,2-dimethylpropionic acid, sodium salt hydrate]	31 % of DMSO Control	16 +/− 3 % of DMSO Control	0.1 % of DMSO Control
COc1ccc(Br)cc1S(=O)(=O)NC(=O)/C=C/c1ccccc1Cc1ccc2ccccc2c1 [L-798106, (2E)-N-[(5-bromo-2-methoxyphenyl)sulfonyl]-3-[2-(2-naphthalenylmethyl)phenyl]-2-propenamide]	33 % of DMSO Control	35 +/− 13 % of DMSO Control	37.6 % of DMSO Control
CC[C@H](C)C(=O)O[C@H]1CCC=C2C=C[C@H](C)[C@H](CC[C@@H]3C[C@@H](O)CC(=O)O3)[C@H]21 [Mevastatin, mevastatin]	74 % of DMSO Control	81 +/− 11 % of DMSO Control	85.1 % of DMSO Control
COCC(=O)O[C@]1(CCN(C)CCCc2nc3ccccc3[nH]2)CCc2cc(F)ccc2[C@@H]1C(C)C [Mibefradil dihydrochloride hydrate, mibefradil]	32 % of DMSO Control	67 +/− 9 % of DMSO Control	53.3 % of DMSO Control
O=C1c2c(O)ccc(O)c2C(=O)c2c(NCCNCCO)ccc(NCCNCCO)c21 [Mitoxantrone dihydrochloride, 1,4-Dihydroxy-5,8-bis[[2-[(2-hydroxyethyl)amino]ethyl]amino]-9,10-anthracenedione]	34 % of DMSO Control	39 +/− 6 % of DMSO Control	36.8 % of DMSO Control
CCN(CC)CCCCNc1ncc2cc(-c3c(Cl)cccc3Cl)c(NC(=O)NC(C)(C)C)nc2n1 [PD-161570, 1-tert-Butyl-3-[6-(2,6-dichlorophenyl)-2-[[4-(diethylamino)butyl]amino]pyrido[2,3-d]pyrimidin-7-yl]urea]	47 % of DMSO Control	60 +/− 12 % of DMSO Control	62.4 % of DMSO Control
O=C(O)c1ccc2ccccc2c1O.OCc1cc(C(O)CNCCCCCCOCCCCc2ccccc2)ccc1O (centres unmarked) [Salmeterol xinafoate, salmeterol xinafoate]	57 % of DMSO Control	57 +/− 9 % of DMSO Control	73.7 % of DMSO Control
O=C(CCCN1CCC2(CC1)C(=O)NCN2c1ccccc1)c1ccc(F)cc1 [Spiroperidol]	85 % of DMSO Control	90 +/− 6 % of DMSO Control	84.3 % of DMSO Control
CSc1ccc2c(c1)N(CCC1CCCCN1C)c1ccccc1S2 (centres unmarked) [Thioridazine hydrochloride, thioridazine]	33 % of DMSO Control	71 +/− 13 % of DMSO Control	67.9 % of DMSO Control
CN1CCN(CCCN2c3ccccc3Sc3ccc(C(F)(F)F)cc32)CC1 [Trifluoperazine dihydrochloride, trifluoperazine]	47 % of DMSO Control	78 +/− 6 % of DMSO Control	47 % of DMSO Control
